Measured values as given in paper PMC4759522, “A fragment merging approach towards the development of small molecule inhibitors of Mycobacterium tuberculosis EthR for use as ethionamide boosters” (Organic & Biomolecular Chemistry, 2016).
Where two headings read alike, the source gives them in different places.

Assays:
EthR [1] = biological target: T1, EthR (Mycobacterium tuberculosis, UniProt P9WMC1); assay: Fluorescence-based thermal shift (DSF) against EthR; format: binding; details: fluorescent-based thermal shift against EthR, 100 μM compound
EthR [2] = biological target: T1, EthR; assay: SPR functional assay: disruption of the interaction between EthR and its DNA operator; format: biochemical; details: for LE: calculated using IC50 values determined by SPR; for fold improvement by SPR compared to compound 5: compared to merged compound 5
Method: (§1) containing NaCl (300 mM), Tris.HCl (20 mM, pH = 8.0) and DMSO-d6 (10% v/v) was prepared and placed in the sample cell of a MicroCal iTC200 microcalorimeter (GE Healthcare). The fragment solution was then titrated to the EthR solution over 39 injections (first injection of 0.4 μl and subsequent injections of 1.0 μl). Data was fitted to a one site binding model using Origin software.
(§2) Figure S6 ITC trace for 4-(4-(3-Oxo-3-(pyrrolidin-1-yl)propyl)piperidin-1-yl)benzonitrile 15 Surface plasmon resonance (SPR)
(§3) The SPR assay was carried out using a BIAcore T100 instrument as described previously.2 The assay was designed to measure the interaction of EthR with the ethA promoter DNA sequence (106 bp – experimental DNA), immobilised via biotin-streptavidin linkage onto an […]
(1 picture or pasted object on this page, not shown here)
SA Series S Sensor Chip (BIAcore). DNA from pUC19 (113 bp) was used as the control against non-specific binding. The experimental (106 bp) and control (113 bp) DNA fragments were produced as described previously.15,16 Biotinylated control and experimental DNA were immobilized to the chip surface to achieve stable fixation levels of 247 and 252 resonance units (RU) respectively.
For screening, EthR/ fragment solution (1-2 μM EthR and required concentration of fragment made up in running buffer (2 mM MgCl2, 10 mM Tris-Cl pH 7.5, 0.1 mM EDTA, 200 mM NaCl, 2% (v/v) DMSO) was flowed over the chip at 20 μL/min for 180 s. The dissociation time was 180 s. To determine binding levels, the response of the control channel at steady state was subtracted from that of the experiment channel. The chip was regenerated between samples using 0.03% w/v SDS in running buffer (passed at a flow rate of 20 μL/ min for 60 […]
For IC50 calculations, the SPR response of EthR binding to the immobilized DNA was measured at various concentrations of compound. The resulting RUs were used to fit the data using nonlinear regression with variable slope dose-response inhibition constrains on GrapfPad PRISM 5.00. IC50 values were calculated as the compound concentrations necessary to inhibit 50% of the maximal interaction between EthR and its DNA operator […]
Figure S7 IC50 curve (SPR) for N-((1-(4-Cyanophenyl)piperidin-4-yl)methyl)pyrrolidine-1-

EthR [3] = biological target: T1, EthR; assay: Isothermal titration calorimetry (ITC) binding to EthR; details: for K D (ITC): n.d. = no heats of binding detected
Description: Figure S5 Crystal structure of 28 bound to EthR (the two different binding modes for this ligand are super-imposed). Although the conformations of the side chains of residues Phe184 and Trp138 preclude the formation of sub-pockets III and IV in the sense of Figure S3, compound 28 is still capable of binding to the protein by altering the shape of the EthR hydrophobic cavity and moulding it around its own scaffold. (PDB code 5F0H) […]
Differential scanning fluorimetry (DSF)
DSF measurements were carried out using a Bio-Rad CFX Connect machine with a 96-well reaction module. Samples (50 μl each) containing EthR (20 μM), NaCl (150 mM), Tris.HCl (20 mM, pH = 8.5), SYPRO orange (2.5x) and test compound (100 µM) in water were prepared in 96-well plates. The 96-well plates were heated linearly from 25 °C to 95 °C using a temperature increment of 0.5 °C every 30 seconds. Melting curves represent plots of the fluorescence emission intensity at λmax 490/575 nm of each sample against temperature.
Melting temperatures (Tm) were determined as the temperatures at which the minima on the negative first derivatives of the melting curves occurred.
Isothermal titration calorimetry (ITC)
An aqueous solution of the fragment to be tested (1 mM) was prepared containing NaCl (300 mM), Tris.HCl (20 mM, pH = 8.0), d6-DMSO (10% v/v) and glycerol (to match the 10% v/v glycerol content in the EthR stock solution). A separate aqueous solution of EthR (50 μM) […]
(1 picture or pasted object on this page, not shown here) […]
as §1, §2, §3

T1 sequence (P9WMC1 whole entry, looked up): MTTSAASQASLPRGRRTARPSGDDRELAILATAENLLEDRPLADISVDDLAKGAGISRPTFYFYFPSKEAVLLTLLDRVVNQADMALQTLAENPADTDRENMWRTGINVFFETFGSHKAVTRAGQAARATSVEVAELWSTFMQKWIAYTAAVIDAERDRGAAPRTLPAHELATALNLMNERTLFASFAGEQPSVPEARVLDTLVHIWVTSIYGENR

| SMILES | ΔT m (EthR [1]) | IC50 (EthR [2]) [µM] | Kd (EthR [3]) [µM] | other results |
| --- | --- | --- | --- | --- |
| O=C(CCC1CCCC1)N1CCCC1 [Compound 1] | +3.5 °C | 280 | 12 | LE (EthR [2]): 0.36 |
| CNCc1ccc(N2CCCCC2)cc1 [Compound 2] | +3.8 °C | – | – | IC50 (EthR [2]; disruption of EthR binding to its DNA operator, SPR, read-out: IC50 (SPR)): > 100 µM |
| CNCc1ccc(N2CCCN(C(=O)CCC3CCCC3)C2)cc1 [Compound 3, 3-cyclopentyl-1-(3-(4-((methylamino)methyl)phenyl)tetrahydropyrimidin-1(2H)-yl)propan-1-one] | – | > 100 | – | – |
| O=C(CCC1CCCC1)Nc1cccc(N2CCCCC2)c1 [Compound 4] | +4.5 °C | > 100 | – | – |
| CNCc1ccc(N2CCC(CCC(=O)N3CCCC3)CC2)cc1 [Compound 5] | +4.3 °C | 35 | 5 | fold improvement in disruption of EthR-DNA interaction (SPR IC50) compared to starting fragment 1 (EthR [2]; compared to fragment 1): eight-fold |
| CN(Cc1ccc(N2CCC(CCC(=O)N3CCCC3)CC2)cc1)C(=O)OC(C)(C)C [Compound 14] | +6.3 °C | 7 | 3 | fold improvement by SPR compared to compound 5 (EthR [2]): five-fold |
| N#Cc1ccc(N2CCC(CCC(=O)N3CCCC3)CC2)cc1 [Compound 15, 4-(4-(3-Oxo-3-(pyrrolidin-1-yl)propyl)piperidin-1-yl)benzonitrile] | +7.5 °C | 3 | 1 | LE (EthR [2]): 0.34; fold improvement by SPR compared to compound 5 (EthR [2]): 10 fold; fold decrease in K D by ITC compared to compound 5 (EthR [3]; compared to compound 5): five-fold |
| CCOC(=O)c1ccc(N2CCC(CCC(=O)N3CCCC3)CC2)cc1 [Compound 16] | +9.3 °C | 3 | – | K D (ITC) (EthR [3]): binding could not be measured by ITC |
| N#Cc1ccc(N2CCC(CNC(=O)N3CCCC3)CC2)cc1 [Compound 17, N-((1-(4-Cyanophenyl)piperidin-4-yl)methyl)pyrrolidine-1-carboxamide] | +7.2 °C | 4 | – | – |
| CCOC(=O)c1ccc(N2CCC(CNC(=O)N3CCCC3)CC2)cc1 [Compound 18] | +8.8 °C | 2 | – | – |
| N#Cc1ccc(N2CCC(CNC(=O)C3CCCC3)CC2)cc1 [Compound 19] | +5.9 °C | 25 | – | – |
| CCOC(=O)c1ccc(N2CCC(CNC(=O)C3CCCC3)CC2)cc1 [Compound 20] | +5.5 °C | > 100 | – | – |
| O=C(NCC1CCN(c2ccccn2)CC1)N1CCCC1 [Compound 21] | +3.8 °C | 22 | 24 | LE (EthR [2]): 0.31 |
| O=C(NCC1CCN(c2ncccn2)CC1)N1CCCC1 [Compound 22] | +3.7 °C | 20 | 12 | – |
| N#Cc1ccc(N2CCC(CCC(=O)Nc3cccc(N4CCCCC4)c3)CC2)cc1 [Compound 23, 3-(1-(4-cyanophenyl)piperidin-4-yl)-N-(3-(piperidin-1-yl)phenyl)propanamide] | – | > 100 | – | K D (ITC) (EthR [3]): could not be observed by ITC |
| N#Cc1ccc(N2CCC(CCC(=O)NCc3ccc(N4CCCCC4)cc3)CC2)cc1 [Compound 28] | – | 33 | – | K D (ITC) (EthR [3]): could not be observed by ITC |
| N#Cc1ccc(N2CCC(CCC(=O)NCc3cccc(N4CCCCC4)c3)CC2)cc1 [Compound 29] | +9.2 °C | 52 | – | K D (ITC) (EthR [3]): could not be observed by ITC |
